# In patent US4863898A, “Amino acid chelated compositions for delivery to specific biological tissue sites” (priority 1986, dated 1989):
# Like-named read-outs stand apart in the source and are kept apart here.
# Legend:
# [1] = parameters: species or system rats; conditions: rat, in vivo
# Text: Leucine was used as the ligand and zinc as the metal. Composition A is therefore a mixture, or at best a complex consisting of one mole of leucine (mole weight 131.17) and one more of zinc chloride. […] Composition B consisted of two moles of leucine admixed with one mole of zinc chloride to form a mixture. […] Composition A contained leucine equivalent to 10 microliters of 0.76M. leucine and was adjusted to pH 9 with 20 microliters of 0.05 N NaOH. Composition B contained leucine equivalent to 20 microliters of 0.76M. leucine containing 20 microliters distilled water in lieu of pH adjustment. The pH of this solution was about 3. Composition C contained the same ingredients as Composition B except in chelated form and the pH was adjusted to 9 with 20 microliters of 0.13M Na2 CO3. The procedure of Example lI was fo lowed using three rats in each group. Upon sacrificing, blood was drawn and certain tissues excised to determine the amount of radioactive zinc which had migrated to the blood and tissues two hours post injection.
# [2] = stability constant of amino acid chelate; assay type: physicochemical
# Text: The determination of stability constants of amino acid chelates is well documented in U.S. Pat. No. 4,167,564 and the means by which amino acid chelates may be formulated to provide optimal stability constants within the required ranges are disclosed in U.S. Pat. Nos. 4,176,564 and 4,172,072.
# [3] = radioactive zinc in tissues after injection into the jugular vein (Example IV); assay type: in vivo; conditions: rats, two hours post injection, group mean
# Description: The method of Example III was again utilized except that the manganese was replaced by zinc. […] The same dosage as in Example III was administered. Only six rats were utilized for this experiment, three in each group, and they were sacrificed two hours post injection into the jugular vein. Six tissues, i.e. brain, skeletal muscle, liver, hypothalamus, pituitary and uterus were analyzed for radioactive zinc with the following mean results for each group reported in terms of cc/min/mg of tissue.
# [4] = radioactive zinc in male sex tissues after intravenous dosage (Example II); conditions: rats, intravenous 0.06 mg zinc, 24 hours post treatment, group average
# Description: Three groups of rats, six in each group, weighing 250 gms±10 gms. were given an intravenous dosage, of 0.06 mg zinc containing 10 microcuries of radioactive zinc.
# Each rat was sacrificed 24 hours post treatment and the testes, epididymis, and seminal visicle of each were exposed, excised and a determination was made of the amount of radioactive zinc in each.
# [5] = female rats, intravenous 0.06 mg Ca, after two hours
# Description: Six female rats, weighing 250 gms.±10 gms., were divided into two groups. All rats were anethetized with 0.15 mls sodium phenobarbital USP. […] To the other three, the same amount of calcium was administered in the form a calcium chloride.
# After two hours, all of he rats were sacrificed and the hypothalamus was removed and read for radioactivity.
molecule,measurement,setting,value
"CC(C)C[C@H](N)C(=O)[O-].CC(C)C[C@H](N)C(=O)[O-].[Zn+2] [Comp. C, zinc-leucine amino acid chelate]",radioactive zinc in Blood,[1],1.64 cc/min/mg
same,radioactive zinc in Heart,[1],6.32 cc/min/mg
same,radioactive zinc in Kidney,[1],8.55 cc/min/mg
same,radioactive zinc in Liver,[1],8.65 cc/min/mg
same,radioactive zinc in Muscle,[1],3.88 cc/min/mg
same,"radioactive zinc, Total of blood and tissues",[1],31.45 cc/min/mg
"NCC(=O)[O-].NCC(=O)[O-].[Zn+2] [GROUP II, zinc-glycine chelate]",stability constant,[2],10^7
"[Cl-].[Cl-].[Zn+2] [Zinc Chloride, zinc chloride]",radioactive zinc in Brain,[3],5.1 cc/min/mg
same,radioactive zinc in Hypothalamus,[3],3.0 cc/min/mg
same,radioactive zinc in Liver,[3],94.2 cc/min/mg
same,radioactive zinc in Pituitary,[3],17.0 cc/min/mg
same,radioactive zinc in Skeletal Muscle,[3],5.2 cc/min/mg
same,radioactive zinc in Uterus,[3],14.0 cc/min/mg
same,radioactive zinc in Epididymis,[4],Negligible
same,radioactive zinc in Seminal Vesicle,[4],Negligible
same,radioactive zinc in Testes,[4],Negligible
"[Ca+2].[Cl-].[Cl-] [inorganic calcium, calcium chloride]","radioactivity in hypothalamus, mean corrected counts per minute per milligram of tissue",[5],67.1±8.4 cc/min/mg
zinc-arginine chelate [GROUP I],stability constant,[2],10^7
